Source: patent US20260042731A1, “(2,4-DICHLOROPHENOXY)ACETIC ACID ANALOGS” (CORTEVA AGRISCIENCE LLC, priority 2022, published 2026)
Where two headings read alike, the source gives them in different places.

Tests used:
[1] = system: Amaranthus rudis (AMATA), tall water hemp; experiment: Postemergence herbicide evaluation, growth of Amaranthus rudis (AMATA); assay type: in vivo; conditions: Amaranthus tuberculatus, post-emergence, read-out: Ave. AMATA
[2] = system: Ambrosia artemisiifolia (AMBEL), common ragweed; experiment: Postemergence herbicide evaluation, growth of Ambrosia artemisiifolia (AMBEL); assay type: in vivo; conditions: Ambrosia artemisiifolia, post-emergence, read-out: AVE. AMBEL
[3] = system: Abutilon theophrasti (ABUTH), velvetleaf; experiment: Postemergence herbicide evaluation, growth of Abutilon theophrasti (ABUTH); assay type: in vivo; conditions: Abutilon theophrasti, post-emergence, read-out: AVE. ABUTH
[4] = system: Chenopodium album (CHEAL), common lambsquarters; experiment: Postemergence herbicide evaluation, growth of Chenopodium album (CHEAL); assay type: in vivo; conditions: Chenopodium album, post-emergence, read-out: Ave. CHEAL
[5] = system: glyphosate resistant Conyza canadensis (L.) (ERICA), horseweed; experiment: Postemergence herbicide evaluation, growth of Conyza canadensis (ERICA); assay type: in vivo; conditions: Erigeron canadensis, post-emergence, read-out: Ave. ERICA
[6] = Volatility of compounds measured by thermogravimetric analysis (TGA); assay type: physicochemical
[7] = system: weeds (ABUTH, AMATA, AMBEL, CHEAL, ERICA); experiment: Postemergence herbicide evaluation, overall average % weed control across ABUTH, AMATA, AMBEL, CHEAL, ERICA; assay type: in vivo; conditions: post-emergence, average over the five weeds, read-out: Overall Ave % Weed Control; for pest or weed control at 280 g/ha: 280 g ae/ha; for pest or weed control at 560 g/ha: 560 g ae/ha
[8] = 168 h, 280 g ae/ha, 7 DAA, percent reduction in plant size relative to untreated control
[9] = 168 h, 560 g ae/ha, 7 DAA, percent reduction in plant size relative to untreated control
[10] = 336 h, 280 g ae/ha, 14 DAA, percent reduction in plant size relative to untreated control
[11] = 336 h, 560 g ae/ha, 14 DAA, percent reduction in plant size relative to untreated control
[12] = 504 h, 280 g ae/ha, 21 DAA, percent reduction in plant size relative to untreated control
[13] = 504 h, 560 g ae/ha, 21 DAA, percent reduction in plant size relative to untreated control

O=C(COc1ccc(Cl)cc1Cl)n1cnc2ccccc21 [Compound D4, 1-(1H-Benzo[d]imidazol-1-yl)-2-(2,4-dichlorophenoxy)ethanone]
pest or weed control at 280 g/ha ([1]; 168 h): 75%
pest or weed control at 560 g/ha ([1]; 168 h): 83%
pest or weed control at 280 g/ha ([1]; 336 h): 75%
pest or weed control at 560 g/ha ([1]; 336 h): 97%
pest or weed control at 280 g/ha ([1]; 504 h): 75%
pest or weed control at 560 g/ha ([1]; 504 h): 95%
pest or weed control at 280 g/ha ([2]; 168 h): 60%
pest or weed control at 560 g/ha ([2]; 168 h): 68%
pest or weed control at 280 g/ha ([2]; 336 h): 85%
pest or weed control at 560 g/ha ([2]; 336 h): 95%
pest or weed control at 280 g/ha ([2]; 504 h): 85%
pest or weed control at 560 g/ha ([2]; 504 h): 98%
pest or weed control at 280 g/ha ([3]; 168 h): 85%
pest or weed control at 560 g/ha ([3]; 168 h): 93%
pest or weed control at 280 g/ha ([3]; 336 h): 95%
pest or weed control at 560 g/ha ([3]; 336 h): 96%
pest or weed control at 280 g/ha ([3]; 504 h): 98%
pest or weed control at 560 g/ha ([3]; 504 h): 98%
pest or weed control at 280 g/ha ([4]; 168 h): 68%
pest or weed control at 560 g/ha ([4]; 168 h): 65%
pest or weed control at 280 g/ha ([4]; 336 h): 75%
pest or weed control at 560 g/ha ([4]; 336 h): 85%
pest or weed control at 280 g/ha ([4]; 504 h): 83%
pest or weed control at 560 g/ha ([4]; 504 h): 93%
pest or weed control at 280 g/ha ([5]; 168 h): 70%
pest or weed control at 560 g/ha ([5]; 168 h): 70%
pest or weed control at 280 g/ha ([5]; 336 h): 83%
pest or weed control at 560 g/ha ([5]; 336 h): 94%
pest or weed control at 280 g/ha ([5]; 504 h): 88%
pest or weed control at 560 g/ha ([5]; 504 h): 99%
TGA Data (rate of weight loss, volatility) [6]: 0.2 µg/min
pest or weed control at 280 g/ha ([7]; 168 h, 7 DAA): 72%
pest or weed control at 560 g/ha ([7]; 168 h, 7 DAA): 76%
pest or weed control at 280 g/ha ([7]; 336 h, 14 DAA): 83%
pest or weed control at 560 g/ha ([7]; 336 h, 14 DAA): 93%
pest or weed control at 280 g/ha ([7]; 504 h, 21 DAA): 86%
pest or weed control at 560 g/ha ([7]; 504 h, 21 DAA): 97%

CCO/C(CC)=N\OC(=O)COc1ccc(Cl)cc1Cl [Compound A9, Ethyl N-2-(2,4-dichlorophenoxy)acetoxypropionimidate]
pest or weed control at 280 g/ha [1, 8]: 65%
pest or weed control at 560 g/ha [1, 9]: 78%
pest or weed control at 280 g/ha [1, 10]: 63%
pest or weed control at 560 g/ha [1, 11]: 85%
pest or weed control at 280 g/ha [1, 12]: 60%
pest or weed control at 560 g/ha [1, 13]: 84%
pest or weed control at 280 g/ha [2, 8]: 73%
pest or weed control at 560 g/ha [2, 9]: 83%
pest or weed control at 280 g/ha [2, 10]: 93%
pest or weed control at 560 g/ha [2, 11]: 93%
pest or weed control at 280 g/ha [2, 12]: 92%
pest or weed control at 560 g/ha [2, 13]: 96%
pest or weed control at 280 g/ha [3, 8]: 80%
pest or weed control at 560 g/ha [3, 9]: 80%
pest or weed control at 280 g/ha [3, 10]: 80%
pest or weed control at 560 g/ha [3, 11]: 96%
pest or weed control at 280 g/ha [3, 12]: 89%
pest or weed control at 560 g/ha [3, 13]: 95%
pest or weed control at 280 g/ha [4, 8]: 70%
pest or weed control at 560 g/ha [4, 9]: 65%
pest or weed control at 280 g/ha [4, 10]: 83%
pest or weed control at 560 g/ha [4, 11]: 68%
pest or weed control at 280 g/ha [4, 12]: 88%
pest or weed control at 560 g/ha [4, 13]: 75%
pest or weed control at 280 g/ha [5, 8]: 70%
pest or weed control at 560 g/ha [5, 9]: 70%
pest or weed control at 280 g/ha [5, 10]: 91%
pest or weed control at 560 g/ha [5, 11]: 84%
pest or weed control at 280 g/ha [5, 12]: 99%
pest or weed control at 560 g/ha [5, 13]: 97%
TGA Data (rate of weight loss, volatility) [6]: 0.5 µg/min
pest or weed control at 280 g/ha ([7]; 168 h, 7 DAA): 72%
pest or weed control at 560 g/ha ([7]; 168 h, 7 DAA): 75%
pest or weed control at 280 g/ha ([7]; 336 h, 14 DAA): 82%
pest or weed control at 560 g/ha ([7]; 336 h, 14 DAA): 85%
pest or weed control at 280 g/ha ([7]; 504 h, 21 DAA): 85%
pest or weed control at 560 g/ha ([7]; 504 h, 21 DAA): 89%
